Assays:
[1] = cited from earlier work
Source text: The Arc display several populations of neurons that are pivotal for regulating energy homoeostasis, food intake and cardiovascular functions. Because of this central role at the interface between the brain and the periphery, a few studies have hypothesized that the Arc could share common features with classical CVOs. […] We have therefore reinvestigated this subject using our approach. […] Membrane‐associated SST2 in Arc neurons intern ...

SST2 [2] = molecular target: T1, SST2 (Rattus norvegicus, UniProt P30680); test: In vivo model 3: juvenile cerebral ischaemia, OCT extravasation detected by SST2 internalization; design: two sensory CVOs in which neurons natively express the SST2; from tissue; host or cells: brain of P14 rats (area postrema, OVLT, arcuate nucleus, cerebral cortex), in vivo; details: P14 rats, 2.5 mg/kg i.p., 45 mins
Procedure: Ischaemia‐reperfusion. Ischaemia was induced in P14 rats as previously reported. See Supporting Information for further details.
Cerebral ischaemia. Isoflurane-anaesthetized P14 rats were exposed to proximal left middle cerebral artery electrocoagulation (MCAo) combined with a transient (60 min) double occlusion of common carotid arteries (CCAo). Carotid blood-flow restoration was assessed by release of the carotid clips.

[3] = Tolerability after acute OCT i.p. injection; assay type: in vivo; details: rat and mice models, 2.5 mg/kg i.p.
SST2 [4] = molecular target: T1, SST2; details: P14 rats, 2.5 mg/kg i.p., 45 mins
Procedure: Adult mice and post‐natal day 14 (P14) male rats. […] Brains were dissected, post‐fixed in the same fixative overnight at 4°C, cryoprotected, frozen in liquid isopentane at −45°C and sectioned in the coronal plane at a thickness of 30 μm and collected in PBS.
The SST2 receptor was immunolocalized on brain sections (in vivo models 1‐5), whole embryo sections (in vivo model 5) and DAOY cells (in vitro model). Brain sections were selected at the level of the circumventricular organs (in vivo model 1), at the level of the focused ultrasound‐mediated BBB opening (in vivo model 2), at the level of the ischaemia‐reperfusion lesions (in vivo model 3), at the level of the traumatic brain injury (in vivo model 4) and at the level of the caudal embryonic cortex (in vivo model 5). See Supporting Information for further details.

[5] = test system: Human Primary Brain Microvascular Endothelial Cell (hPBMEC) monolayers; test: Fluorescein permeability of hPBMEC monolayers (tight junction functionality); assay type: in vitro ADME; details: hPBMEC monolayer, with 1 M mannitol treatment 30 min, versus basal
Procedure: The hPBMECs were cultured as previously described [31]. […] Differentiated hPBMECs with the BBB phenotype (TEER> 1000 Ωxcm^2) were treated or not with 1 M mannitol in serum‐free culture medium for 30 min to temporarily open tight junctions. Then, mannitol solution was removed and replaced by culture medium. Tight junction opening was evaluated with the measurements of fluorescein permeability, a small hydrophilic compound known to cross the BBB via the paracellular route. […] The medium of the abluminal compartment was then collected during a 2‐hour period (n = 3 per condition).
The experimentation was conducted in compliance with the French legislation, and the protocol was permitted by the French Ministry of Higher Education and Research (CODECOH DC-2014-2229). Brain capillaries were isolated using soft digestion of patient brain tissues and then seeded. Brain primary microvascular endothelial cells were shortly amplified and seeded on 12-well-type Transwell® (Corning, membrane area: 1.12 cm^2) with microporous membranes (pore size: 0.4 µm). Cells were cultured in EBM-2 medium (Lonza, Basel, Switzerland) supplemented with 20% serum and growth factors (Sigma-Aldrich, St. Louis, MO, USA). Transendothelial electrical resistance (TEER) was measured as an integrity marker and to assess cellular barrier tightness.

SST2 [6] = molecular target: T2, SST2 (Mus musculus, UniProt P30875); test: In vivo model 2: focused ultrasound-mediated BBB disruption, extravasation detected by SST2 internalization or MRI; details: after microbubble sonication of the targeted area, i.v.
T2 construct: The endogenous SST2 was immunolocalized using an extensively characterized rabbit monoclonal antibody; from tissue; host or cells: brain of adult C57Bl/6 mice, P7 OF1 mouse pups and C57Bl/6 embryos (E13.5-E18.5), in vivo
Procedure: BBB disruption induced by magnetic resonance imaging (MRI)‐guided focused ultrasound (FUS) (MRgFUS) was performed as previously reported [28].
Stereological measures of estimated volume in the in vivo model 2 was performed with the Volumest plug‐in [32] in the Fiji distribution of ImageJ [33]. Brightfield images of serial coronal sections separated by 180 μm were collected. The number of serial sections, the thickness of the sections, the sampling interval and pixel‐to‐μm scaling were entered into the Volumest plug‐in. Next, the cortical areas displaying BBB disruption detected by SST2 internalization were manually traced and the volume estimate was calculated in the Volumest plug‐in [32].
Adult C57Bl/6 mice (n=3) were anaesthetized with isoflurane (1-2% at beginning, then 0.8% during MRI acquisition). The catheter was installed in the tail vein and the head was shaved with a depilatory cream. Mice were then installed on the MRgFUS system (Image Guided Therapy) and the transducer was placed on their head. MR contrast agent (MRCA) (Dotarem, Guerbet, France; 0.1 mL) was injected intravenously outside the MRI tunnel, before the baseline MRI acquisition. Mice were then removed from the MRI tunnel in order to inject the ultrasound contrast agent (UCA) (Sonovue, Bracco, Italy; 0.15 mL). […]

[7] = cited from earlier work; remark: listed apart in the source

T1 sequence (P30680 whole entry, the tested form may be a part): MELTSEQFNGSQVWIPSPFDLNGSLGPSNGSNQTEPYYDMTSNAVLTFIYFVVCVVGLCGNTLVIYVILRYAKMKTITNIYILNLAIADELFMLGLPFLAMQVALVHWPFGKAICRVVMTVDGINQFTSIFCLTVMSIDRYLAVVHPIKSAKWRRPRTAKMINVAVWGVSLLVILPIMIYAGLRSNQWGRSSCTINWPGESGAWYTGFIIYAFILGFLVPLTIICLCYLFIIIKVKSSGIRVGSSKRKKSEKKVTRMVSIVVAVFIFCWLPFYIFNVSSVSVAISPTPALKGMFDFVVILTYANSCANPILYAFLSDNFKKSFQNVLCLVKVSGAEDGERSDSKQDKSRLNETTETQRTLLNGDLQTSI
T2 sequence (P30875 whole entry): as the sequence (P30680 whole entry, the tested form may be a part) above, with L3M, T4S, F8L, I15V, P16S, G168C, A335T counted along it

For `Cc1cc(-c2ccc(/N=N/c3ccc4c(S(=O)(=O)O)cc(S(=O)(=O)O)c(N)c4c3O)c(C)c2)ccc1/N=N/c1ccc2c(S(=O)(=O)O)cc(S(=O)(=O)O)c(N)c2c1O` [Evans blue], the “dye extravasation in the Arc” value [1] is listed as “extravasated only in the Arc of 24‐hour fasted mice but not in control‐fed mice”.

For `C[C@@H](O)[C@@H]1NC(=O)[C@H](CCCCN)NC(=O)[C@@H](Cc2c[nH]c3ccccc23)NC(=O)[C@H](Cc2ccccc2)NC(=O)[C@@H](NC(=O)[C@H](N)Cc2ccccc2)CSSC[C@@H](C(=O)N[C@H](CO)[C@@H](C)O)NC1=O` [OCT, octreotide], the “SST2 internalization around cortical lesion” value (SST2 [2]; 6 h after ischaemia) was “few neurons with internalized receptors were visible”, the “SST2 internalization around cortical lesion” value (SST2 [2]; 12 h after ischaemia) was “a larger number of neurons with internalized SST2 are localized in a narrow band” and the “SST2 internalization around cortical lesion” value (SST2 [2]; 24 h after ischaemia) was “induced large areas of SST2 internalization around the core of the cortical lesion”. The “physiological or behavioural parameters after acute i.p. injection until perfusion” value [3] was “did not observe any gross changes in physiological or behavioural parameters”, the “SST2 immunoreactivity in AP and OVLT (permeable capillaries)” value (SST2 [4]) was “immunoreactivity was confined to intracytoplasmic granules near the nucleus and in proximal dendrites” and the “SST2 in arcuate nucleus neurons” value (SST2 [4]; naïve animals) was “internalized and clustered in TGN‐like structures”.

For `O=C1OC2(c3ccc(O)cc3Oc3cc(O)ccc32)c2ccccc21` [fluorescein], the “increase of fluorescein permeability” value [5] was 600 ± 25%.

For `CNC[C@H](O)[C@@H](O)[C@H](O)[C@H](O)CO.O=C([O-])CN1CCN(CC(=O)[O-])CCN(CC(=O)O)CCN(CC(=O)[O-])CC1.[Gd+3]` [gadolinium], the “Gd extravasation on T1-weighted MRI” value (SST2 [6]) was “Extravasation was evident from the cerebral cortex to deep brain structures”.

In the case of somatostatin, the “half-life in the circulation” value [7] is given as 2 to 3 min.
